Test results published in patent US11117892B2, “Pyrrolo-pyridine derivative compound, method for preparing same, and pharmaceutical composition containing same as active ingredient for prevention or treatment of protein kinase-related diseases” (DAEGU-GYEONGBUK MEDICAL INNOVATION FOUNDATION, priority 2017, dated 2021).

Legend:
5× FAD mice [1] = experiment: novel object recognition test, long term cognitive function; format: in vivo; settings: 20 mg/kg i.p. every day for 2 weeks, vs non-treated group
Protocol: Novel object recognition test is an experiment to test the memory of perception of an object. Mice were let to see two identical objects. After a certain period of time had passed (several hours˜a week), the mice were let to see a novel object together with the object previously presented. Then, how much those mice were interested in the novel object and studied it was evaluated, leading to the evaluation of long term memory of the previous object.
Two objects which were the same in the shape and in the size (F, F) were placed in a specific corner of the open field box (42×42×42 cm) made that the outside is not invisible from the inside, and a test mouse was started from the center of the box. Then, the number and time of the test mouse touching those two objects were recorded for 5 minutes (Acquisition). 24 hours later, one of those two objects was replaced with a new one (F, N). The number and time of access to the original object (F) and the new object (N) were recorded and digitized (Discrimination). Preference for the object (p) was calculated by (time to approach to a certain object)/(total time to approach to two objects). FIG. 10(a) presents the schematic diagram of novel object recognition test, and FIG. 10(b) presents the calculation results.

5× FAD mice [2] = experiment: Tau phosphorylation (AT180 immunohistochemistry) in Alzheimer's disease animal model; format: in vivo; settings: 20 mg/kg i.p. every day for 2 weeks, vs vehicle
Protocol: 2 weeks later, immunohistochemistry was performed using AT180, one of Tau phosphorylation antibodies, and as a result confocal microscope images were obtained. Quantitative analysis with the images was performed using image j software.

5× FAD mice [3] = experiment: Y-maze behavioral test, short term cognitive function; format: in vivo; settings: 20 mg/kg i.p. every day for 2 weeks, vs non-treated group
Protocol: Then, the mice were placed in Y-maze composed of three arms abutting 120°, and each arm was lifted sequentially for five minutes to calculate the number of alternation triplets to see how well the mice remembered where they visited.
The equipment used for Y-maze test is composed of three arms. The length of each arm was 42 cm, the width thereof was 3 cm and the height was 12 cm. The angle of contact between the three arms is 120°. All experimental devices were made of black polyvinyl plastic. Each arm was assigned with A, B and C. A test mouse was carefully located in one arm and let move freely for 8 minutes. Then, the arm which the test mouse entered was recorded. At this time, the ‘enter’ means the case when the mouse tail was completely in. If the mouse entered an arm where it had already visited, the case was also recorded. If the mouse entered three different arms one by one (actual alternation), one point was given. Alternation behavior was defined by that the mouse entered three different arms stepwise, which was calculated by the following equation. […] [alternation behavior (%)=actual alternation/*maximum alternation×100]
*maximum alternation: total entries−2

mouse pancreatic β-cell = mouse pancreatic β-cell proliferation (Ki-67/insulin staining); format: cell-based
Protocol: It is known that when human β-cells are treated with harmine that inhibits DYRK1A, the proliferation of β-cells is promoted by increasing the transcription factor activity by inhibiting the phosphorylation of NFAT known as a phosphorylation substrate of DYRK1A.
Particularly, pancreatic Langerhans islet tissues were extracted from the mouse at 8 weeks old, followed by culture in RPMI1640 medium supplemented with 10% FCS (fetal calves serum), 5.5 mM glucose and 1% penicillin-streptomycin for 24 hours.
Next, in order to separate β-cells as single cells from the Langerhans islet, cells were washed twice with PBS, followed by centrifugation. The collected cells were left in the medium supplemented with 1 mg/ml of trypsin for 10 minutes at 37° C. The cells were shaken using a pipette every 10 seconds for 5 minutes. Trypsin reaction was terminated by adding RPMI1640 containing 10% FCS (fetal calves serum), 5.5 mM glucose and 1% penicillin-streptomycin, followed by centrifugation to collect single cells.
Then, the single cells were loaded on the laminin-coated cover glass and stabilized for 24 hours. The cells were cultured in the medium containing the compound of the present invention for 72 hours. […] The cells double-stained with Ki-67/insulin were counted under Olympus F-1000 confocal fluorescence microscope to investigate cell proliferation.

DYRK1A = DYRK1A (Homo sapiens (Human), UniProt Q13627); experiment: scanMAX Kinase assay panel; format: binding; settings: read-out: % control
Summary of the method: (§1)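 Panel: scanMAX. Metric: % control. The 100% anchor is DMSO and the 0% anchor is the positive control.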

CLK1 = CLK1 (Homo sapiens (Human), UniProt P49759); experiment: scanMAX Kinase assay panel; format: binding; settings: read-out: % control
Summary of the method: as §1

CLK3 = CLK3 (Homo sapiens (Human), UniProt P49761); experiment: scanMAX Kinase assay panel; format: binding; settings: read-out: % control
Summary of the method: as §1

DYRK1B = DYRK1B (Homo sapiens (Human), UniProt Q9Y463); experiment: scanMAX Kinase assay panel; format: binding; settings: read-out: % control
Summary of the method: as §1

DYRK2 = DYRK2 (Homo sapiens (Human), UniProt Q92630); experiment: scanMAX Kinase assay panel; format: binding; settings: read-out: % control
Summary of the method: as §1

GSK3B = GSK3B (Homo sapiens (Human), UniProt P49841); experiment: scanMAX Kinase assay panel; format: binding; settings: read-out: % control
Summary of the method: as §1

CLK2 = CLK2 (Homo sapiens (Human), UniProt P49760); experiment: scanMAX Kinase assay panel; format: binding; settings: read-out: % control
Summary of the method: as §1

CSNK1E = CSNK1E (Homo sapiens (Human), UniProt P49674); experiment: scanMAX Kinase assay panel; format: binding; settings: read-out: % control
Summary of the method: as §1

CDK5 = CDK5 (Homo sapiens (Human), UniProt Q00535); experiment: scanMAX Kinase assay panel; format: binding; settings: read-out: % control
Summary of the method: as §1

CLK4 = CLK4 (Homo sapiens (Human), UniProt Q9HAZ1); experiment: scanMAX Kinase assay panel; format: binding; settings: read-out: % control
Summary of the method: as §1

GSK3B, sequence (P49841 whole entry): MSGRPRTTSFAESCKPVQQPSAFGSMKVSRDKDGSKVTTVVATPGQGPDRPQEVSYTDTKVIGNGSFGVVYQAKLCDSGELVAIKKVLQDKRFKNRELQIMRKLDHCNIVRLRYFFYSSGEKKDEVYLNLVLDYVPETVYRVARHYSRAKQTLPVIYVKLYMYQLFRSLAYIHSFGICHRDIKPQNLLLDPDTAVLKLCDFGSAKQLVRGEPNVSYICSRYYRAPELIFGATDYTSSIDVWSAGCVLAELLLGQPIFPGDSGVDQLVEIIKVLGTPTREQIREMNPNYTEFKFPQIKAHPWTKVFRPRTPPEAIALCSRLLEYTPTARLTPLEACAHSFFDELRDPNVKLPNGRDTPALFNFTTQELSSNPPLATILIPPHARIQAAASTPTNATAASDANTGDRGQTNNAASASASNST
CLK3, sequence (P49761 whole entry): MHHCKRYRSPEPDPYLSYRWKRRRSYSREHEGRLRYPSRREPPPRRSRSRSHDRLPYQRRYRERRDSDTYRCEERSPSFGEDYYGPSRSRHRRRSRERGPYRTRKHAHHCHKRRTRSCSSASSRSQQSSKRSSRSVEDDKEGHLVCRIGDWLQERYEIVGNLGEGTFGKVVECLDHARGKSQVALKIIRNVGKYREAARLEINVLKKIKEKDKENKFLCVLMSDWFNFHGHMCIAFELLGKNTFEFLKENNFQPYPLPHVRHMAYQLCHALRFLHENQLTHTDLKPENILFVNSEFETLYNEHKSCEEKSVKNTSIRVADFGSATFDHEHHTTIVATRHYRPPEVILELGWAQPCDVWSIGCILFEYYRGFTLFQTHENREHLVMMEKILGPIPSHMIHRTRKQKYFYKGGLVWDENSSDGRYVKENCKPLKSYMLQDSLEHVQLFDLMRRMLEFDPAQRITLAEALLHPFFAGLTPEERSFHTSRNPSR
CSNK1E, sequence (P49674 whole entry): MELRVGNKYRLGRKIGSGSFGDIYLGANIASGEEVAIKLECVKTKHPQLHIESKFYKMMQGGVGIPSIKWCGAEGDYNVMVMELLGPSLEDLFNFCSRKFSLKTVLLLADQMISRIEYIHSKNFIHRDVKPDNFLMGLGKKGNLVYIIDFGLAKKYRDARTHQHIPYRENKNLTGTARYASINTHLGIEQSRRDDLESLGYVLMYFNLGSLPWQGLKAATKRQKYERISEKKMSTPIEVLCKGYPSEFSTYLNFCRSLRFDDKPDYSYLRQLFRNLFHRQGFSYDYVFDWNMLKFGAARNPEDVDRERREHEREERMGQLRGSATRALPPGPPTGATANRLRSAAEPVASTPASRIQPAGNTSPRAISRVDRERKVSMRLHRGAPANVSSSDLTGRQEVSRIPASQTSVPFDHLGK
CLK4, sequence (Q9HAZ1 whole entry): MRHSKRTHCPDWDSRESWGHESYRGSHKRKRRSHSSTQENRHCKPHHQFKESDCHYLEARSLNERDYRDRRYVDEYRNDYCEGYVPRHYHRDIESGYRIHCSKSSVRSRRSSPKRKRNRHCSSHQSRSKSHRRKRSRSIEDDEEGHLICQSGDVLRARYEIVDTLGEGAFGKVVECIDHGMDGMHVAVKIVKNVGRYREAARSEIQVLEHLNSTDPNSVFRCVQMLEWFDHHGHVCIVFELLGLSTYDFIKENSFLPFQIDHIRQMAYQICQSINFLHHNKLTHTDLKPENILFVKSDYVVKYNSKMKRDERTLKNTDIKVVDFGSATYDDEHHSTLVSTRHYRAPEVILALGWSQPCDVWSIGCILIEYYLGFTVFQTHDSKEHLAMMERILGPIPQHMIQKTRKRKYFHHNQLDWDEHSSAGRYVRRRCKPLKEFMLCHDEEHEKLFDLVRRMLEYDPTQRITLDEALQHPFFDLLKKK
CLK1, sequence (P49759 whole entry): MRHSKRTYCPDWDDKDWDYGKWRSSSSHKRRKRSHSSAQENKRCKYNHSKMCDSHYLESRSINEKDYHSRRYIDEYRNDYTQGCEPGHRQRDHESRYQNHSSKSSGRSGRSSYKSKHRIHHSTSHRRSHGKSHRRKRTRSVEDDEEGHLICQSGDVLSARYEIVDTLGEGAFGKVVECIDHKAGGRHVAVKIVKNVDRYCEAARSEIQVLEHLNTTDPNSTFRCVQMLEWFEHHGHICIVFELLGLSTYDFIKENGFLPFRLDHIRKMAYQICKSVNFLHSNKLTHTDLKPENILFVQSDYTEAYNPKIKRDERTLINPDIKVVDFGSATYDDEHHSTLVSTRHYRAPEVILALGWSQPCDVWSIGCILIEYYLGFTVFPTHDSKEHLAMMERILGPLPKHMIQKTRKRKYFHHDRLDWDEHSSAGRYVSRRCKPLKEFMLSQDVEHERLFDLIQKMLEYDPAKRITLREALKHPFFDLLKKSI
DYRK2, sequence (Q92630 whole entry): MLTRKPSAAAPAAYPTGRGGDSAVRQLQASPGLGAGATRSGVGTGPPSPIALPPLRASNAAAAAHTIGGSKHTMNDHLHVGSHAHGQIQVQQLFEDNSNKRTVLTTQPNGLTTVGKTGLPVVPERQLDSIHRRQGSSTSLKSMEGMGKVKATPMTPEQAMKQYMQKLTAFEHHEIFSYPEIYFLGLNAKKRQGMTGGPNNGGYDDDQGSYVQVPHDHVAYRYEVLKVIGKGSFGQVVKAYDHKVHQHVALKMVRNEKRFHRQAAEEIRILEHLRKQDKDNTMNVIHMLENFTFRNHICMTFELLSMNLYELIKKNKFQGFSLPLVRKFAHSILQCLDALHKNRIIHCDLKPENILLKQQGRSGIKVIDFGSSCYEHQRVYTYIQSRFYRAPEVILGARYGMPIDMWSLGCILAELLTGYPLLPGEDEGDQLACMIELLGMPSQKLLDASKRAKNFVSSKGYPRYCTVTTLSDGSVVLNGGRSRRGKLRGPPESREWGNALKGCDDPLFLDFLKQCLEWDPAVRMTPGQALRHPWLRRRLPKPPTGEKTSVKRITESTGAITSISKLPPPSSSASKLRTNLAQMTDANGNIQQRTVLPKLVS
CLK2, sequence (P49760 whole entry): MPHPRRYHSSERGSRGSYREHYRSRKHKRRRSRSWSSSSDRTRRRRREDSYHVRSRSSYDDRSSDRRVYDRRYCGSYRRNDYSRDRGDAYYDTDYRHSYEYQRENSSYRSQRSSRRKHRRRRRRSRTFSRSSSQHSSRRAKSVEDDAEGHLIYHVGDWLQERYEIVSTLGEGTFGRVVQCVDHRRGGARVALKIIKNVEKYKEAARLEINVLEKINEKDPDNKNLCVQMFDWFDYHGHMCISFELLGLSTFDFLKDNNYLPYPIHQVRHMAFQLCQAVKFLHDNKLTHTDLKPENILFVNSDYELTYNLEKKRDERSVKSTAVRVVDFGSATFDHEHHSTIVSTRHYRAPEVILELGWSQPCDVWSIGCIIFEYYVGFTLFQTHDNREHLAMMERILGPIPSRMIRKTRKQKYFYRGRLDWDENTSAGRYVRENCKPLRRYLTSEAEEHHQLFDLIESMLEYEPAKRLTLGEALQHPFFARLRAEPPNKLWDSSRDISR
CDK5, sequence (Q00535 whole entry): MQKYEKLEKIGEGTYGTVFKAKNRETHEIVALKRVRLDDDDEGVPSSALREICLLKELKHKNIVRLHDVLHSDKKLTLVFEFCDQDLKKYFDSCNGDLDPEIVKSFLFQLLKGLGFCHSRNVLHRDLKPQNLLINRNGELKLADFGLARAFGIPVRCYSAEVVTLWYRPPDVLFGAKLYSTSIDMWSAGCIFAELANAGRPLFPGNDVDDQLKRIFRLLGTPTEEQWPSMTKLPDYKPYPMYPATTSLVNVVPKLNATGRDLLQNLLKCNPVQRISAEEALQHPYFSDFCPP
DYRK1B, sequence (Q9Y463 whole entry): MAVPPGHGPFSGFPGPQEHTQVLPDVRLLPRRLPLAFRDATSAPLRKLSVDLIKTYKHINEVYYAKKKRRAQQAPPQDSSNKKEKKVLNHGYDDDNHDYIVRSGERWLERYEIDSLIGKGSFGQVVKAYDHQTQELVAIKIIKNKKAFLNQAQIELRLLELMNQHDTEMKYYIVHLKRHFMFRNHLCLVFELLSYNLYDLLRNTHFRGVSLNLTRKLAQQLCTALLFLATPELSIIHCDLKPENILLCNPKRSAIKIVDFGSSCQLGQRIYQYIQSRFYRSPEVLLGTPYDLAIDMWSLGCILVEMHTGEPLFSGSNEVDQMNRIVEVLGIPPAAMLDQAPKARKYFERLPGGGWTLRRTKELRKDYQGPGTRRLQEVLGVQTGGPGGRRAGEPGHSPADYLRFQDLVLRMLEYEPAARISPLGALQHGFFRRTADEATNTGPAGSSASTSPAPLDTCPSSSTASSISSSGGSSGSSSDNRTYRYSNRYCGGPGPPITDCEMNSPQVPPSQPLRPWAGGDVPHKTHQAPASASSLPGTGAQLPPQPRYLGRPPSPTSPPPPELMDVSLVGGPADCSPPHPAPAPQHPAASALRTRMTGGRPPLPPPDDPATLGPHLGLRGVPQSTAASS

CCNc1cc(Nc2ccc(C(=O)N3CCC(N4CCOCC4)CC3)cc2OC)nc2[nH]cc(C(F)(F)F)c12 [Example 57, (4-((4-(ethylamino)-3-(trifluoromethyl)-1H-pyrrolo[2,3-b]pyridin-6-yl)amino)-3-methoxyphenyl) (4-morpholinopiperidin-1-yl)methanone]
long term memory (preference for the new object) (5× FAD mice [1]): improved long term memory
immunoreactivity of AT180 in the cerebral cortex region (5× FAD mice [2]): no significant change
immunoreactivity of AT180 in the hippocampus (5× FAD mice [2]): significantly reduced
short term memory (Y-maze alternation behavior) (5× FAD mice [3]): improved short term memory
increase of the cell number (mouse pancreatic β-cell; Ki-67/insulin double-stained cells, 72 hours): 5 times
cell proliferation (mouse pancreatic β-cell; mouse pancreatic β-cells cultured with compound for 72 hours): active

CCNc1cc(Nc2ccc(C(=O)N3CCC(N4CCOCC4)CC3)cc2OC)nc2[nH]cc(C#N)c12 [Example 18, 4-(ethylamino)-6-((2-methoxy-4-(4-morpholinopiperidine-1-carbonyl)phenyl)amino)-1H-pyrrolo[2,3-b]pyridine-3-carbonitrile]
remaining binding at 1 µM (DYRK1A): 2%
remaining binding at 1 µM (CLK1): 1.9%
remaining binding at 1 µM (CLK3): 73%
remaining binding at 1 µM (DYRK1B): 4%
remaining binding at 1 µM (DYRK2): 14%
remaining binding at 1 µM (GSK3B): 97%
remaining binding at 1 µM (CLK2): 8.5%
remaining binding at 1 µM (CSNK1E): 0.6%
remaining binding at 1 µM (CDK5): 100%
remaining binding at 1 µM (CLK4): 4%
